Structures are written as SMILES.

Chain of GLP-1R (P43220 24-463): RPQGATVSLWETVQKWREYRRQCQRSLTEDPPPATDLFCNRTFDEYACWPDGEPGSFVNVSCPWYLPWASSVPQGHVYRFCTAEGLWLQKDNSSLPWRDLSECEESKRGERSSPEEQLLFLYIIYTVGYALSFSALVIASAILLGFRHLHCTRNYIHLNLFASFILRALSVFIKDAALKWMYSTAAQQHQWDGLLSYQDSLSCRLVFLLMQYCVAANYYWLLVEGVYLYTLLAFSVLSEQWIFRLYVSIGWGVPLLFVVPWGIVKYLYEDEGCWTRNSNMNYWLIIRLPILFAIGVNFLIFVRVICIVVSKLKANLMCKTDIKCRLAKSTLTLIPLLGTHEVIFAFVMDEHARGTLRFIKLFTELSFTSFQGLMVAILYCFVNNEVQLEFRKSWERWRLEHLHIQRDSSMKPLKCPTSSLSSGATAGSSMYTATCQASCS

The test addresses GLP-1R (Homo sapiens, UniProt P43220). Description: GLP-1R Activation - cAMP Assay. As to conditions: cAMP increase in CHO cells stably expressing GLP-1R; each compound run on one of the two cAMP assays (Assay 1 or Assay 2, not specified). In kind it is cell-based. The essentials: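 cAMP rise read by HTRF after 30 min agonist exposure (10-point titration, 37 °C) in HBSS/20 mM Hepes/0.1% BSA, following 1 h pre-incubation. Cells: stable GLP-1R CHO line, 1,000/well, seeded overnight. Sigmoidal fit of response vs log concentration gives EC50.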
Usually EC50 stands for the midpoint of the concentration-response curve. The low end stands for an effect from little substance, the high end for a need for much substance. For `CC1(C)COC[C@@H]1n1c(Cc2c(F)cc(-c3cccc(OCc4ccc(C#N)cc4F)n3)c(F)c2F)nc2c(F)cc(C(=O)O)cc21` [Example 123], the EC50 was found to be 0.528 nM.

For `CC1(C)COC[C@H]1n1c(Cc2c(F)cc(-c3cccc(OCc4ccc(C#N)cc4F)n3)c(F)c2F)nc2c(F)cc(C(=O)O)cc21` [Example 124], the midpoint of the response, the EC50, lay at 0.027 nM.

`COCCn1c(Cc2cc(F)c(-c3ccc(F)c(OCc4ccc(C#N)cc4F)n3)cc2F)nc2ccc(C(=O)O)c(F)c21` [Example 125, 2-(4-(6-((4-cyano-2-fluorobenzyl)oxy)-5-fluoropyridin-2-yl)-2,5-difluorobenzyl)-7-fluoro-1-(2-methoxyethyl)-1H-benzo[d]imidazole-6-carboxylic Acid] gave an EC50 of 0.112 nM. This EC50 is about 4.1-fold higher than that of the molecule before.

As to `CC1(C)COC[C@H]1n1c(Cc2cc(F)c(-c3cccc(OCc4ccc(Cl)cc4F)n3)cc2F)nc2c(Cl)cc(C(=O)O)cc21` [Example 126, (S)-4-chloro-2-(4-(6-((4-chloro-2-fluorobenzyl)oxy)pyridin-2-yl)-2,5-difluorobenzyl)-1-(4,4-dimethyltetrahydrofuran-3-yl)-1H-benzo[d]imidazole-6-carboxylic Acid], the EC50 is 0.332 nM.

For `CC1(C)COC[C@H]1n1c(Cc2cc(F)c(-c3ccc(F)c(OCc4ccc(C#N)cc4F)n3)cc2F)nc2c(Cl)cc(C(=O)O)cc21` [Example 127, (S)-4-chloro-2-(4-(6-((4-cyano-2-fluorobenzyl)oxy)-5-fluoropyridin-2-yl)-2,5-difluorobenzyl)-1-(4,4-dimethyltetrahydrofuran-3-yl)-1H-benzo[d]imidazole-6-carboxylic Acid], the response was half-maximal at 0.353 nM (EC50).

Consider `CC1(C)COC[C@H]1n1c(Cc2cc(F)c(-c3ccnc(OCc4ccc(C#N)cc4F)n3)cc2F)nc2c(Cl)cc(C(=O)O)cc21` [Example 129, (S)-4-chloro-2-(4-(2-((4-cyano-2-fluorobenzyl)oxy)pyrimidin-4-yl)-2,5-difluorobenzyl)-1-(4,4-dimethyltetrahydrofuran-3-yl)-1H-benzo[d]imidazole-6-carboxylic Acid], for which the EC50 came out at 0.271 nM.

In turn, `CC1(C)COC[C@H]1n1c(Cc2cc(F)c(-c3cccc(OCc4ccc(C#N)cc4F)n3)cc2F)nc2c(Cl)cc(C(=O)O)cc21` [Example 130, (S)-4-chloro-2-(4-(6-((4-cyano-2-fluorobenzyl)oxy)pyridin-2-yl)-2,5-difluorobenzyl)-1-(4,4-dimethyltetrahydrofuran-3-yl)-1H-benzo[d]imidazole-6-carboxylic Acid] had an EC50 of 0.038 nM.

`CC1(C)COC[C@H]1n1c(Cn2cc(F)c(-c3ccc(F)c(OCc4ccc(Cl)cc4F)n3)cc2=O)nc2c(F)cc(C(=O)O)cc21` [Example 131, (S)-2-((6-((4-chloro-2-fluorobenzyl)oxy)-5,5′-difluoro-2′-oxo-[2,4′-bipyridin]-1′(2′H)-yl)methyl)-1-(4,4-dimethyltetrahydrofuran-3-yl)-4-fluoro-1H-benzo[d]imidazole-6-carboxylic Acid] yielded an EC50 of 0.145 nM.

In the case of `CC1(C)COC[C@H]1n1c(Cn2cc(F)c(-c3ccc(F)c(OCc4ccc(C#N)cc4F)n3)cc2=O)nc2c(F)cc(C(=O)O)cc21` [Example 132, (S)-2-((6-((4-cyano-2-fluorobenzyl)oxy)-5,5′-difluoro-2′-oxo-[2,4′-bipyridin]-1′(2′H)-yl)methyl)-1-(4,4-dimethyltetrahydrofuran-3-yl)-4-fluoro-1H-benzo[d]imidazole-6-carboxylic Acid], the EC50 came to 0.043 nM. Compared with the last molecule, the EC50 is about 3.4-fold lower.

`Cc1cc(Cc2nc3c(F)cc(C(=O)O)cc3n2[C@@H]2COCC2(C)C)c(Cl)cc1-c1cccc(OCc2ccc(C#N)cc2)n1` [Example 133, (S)-2-(2-chloro-4-(6-((4-cyanobenzyl)oxy)pyridin-2-yl)-5-methylbenzyl)-1-(4,4-dimethyltetrahydrofuran-3-yl)-4-fluoro-1H-benzo[d]imidazole-6-carboxylic Acid] registered an EC50 of 0.021 nM.

`Cc1cc(Cc2nc3ccc(C(=O)O)cc3n2[C@@H]2COCC2(C)C)c(Cl)cc1-c1cccc(OCc2ccc(C#N)cc2)n1` [Example 134, (S)-2-(2-chloro-4-(6-((4-cyanobenzyl)oxy)pyridin-2-yl)-5-methylbenzyl)-1-(4,4-dimethyltetrahydrofuran-3-yl)-1H-benzo[d]imidazole-6-carboxylic Acid] showed an EC50 of 0.077 nM.

In turn, `Cc1cc(Cc2nc3ccc(C(=O)O)cc3n2[C@@H]2COCC2(C)C)c(Cl)cc1-c1ccc(F)c(OCc2ccc(C#N)cc2)n1` [Example 135, (S)-2-(2-chloro-4-(6-((4-cyanobenzyl)oxy)-5-fluoropyridin-2-yl)-5-methylbenzyl)-1-(4,4-dimethyltetrahydrofuran-3-yl)-1H-benzo[d]imidazole-6-carboxylic Acid] had an EC50 of 0.361 nM.

For the molecule `Cc1cc(Cc2nc3c(F)cc(C(=O)O)cc3n2[C@@H]2COCC2(C)C)c(Cl)cc1-c1ccc(F)c(OCc2ccc(C#N)cc2)n1` [Example 136, (S)-2-(2-chloro-4-(6-((4-cyanobenzyl)oxy)-5-fluoropyridin-2-yl)-5-methylbenzyl)-1-(4,4-dimethyltetrahydrofuran-3-yl)-4-fluoro-1H-benzo[d]imidazole-6-carboxylic Acid], the midpoint of the response, the EC50, lay at 0.312 nM.

In the case of `CC1(C)COC[C@H]1n1c(Cn2cc(F)c(-c3cccc(OCc4ccc(Cl)cc4F)n3)cc2=O)nc2c(F)cc(C(=O)O)cc21` [Example 137, (S)-2-((6-((4-chloro-2-fluorobenzyl)oxy)-5′-fluoro-2′-oxo-[2,4′-bipyridin]-1′(2′H)-yl)methyl)-1-(4,4-dimethyltetrahydrofuran-3-yl)-4-fluoro-1H-benzo[d]imidazole-6-carboxylic Acid], the EC50 came to 0.039 nM. Compared with the last molecule, the EC50 is about 8-fold lower.

Molecule `Cc1cc(Cc2nc3c(F)cc(C(=O)O)cc3n2[C@@H]2COCC2(C)C)c(Cl)cc1-c1ccc(F)c(OCc2ccc(C#N)cc2F)n1` [Example 138, (S)-2-(2-chloro-4-(6-((4-cyano-2-fluorobenzyl)oxy)-5-fluoropyridin-2-yl)-5-methylbenzyl)-1-(4,4-dimethyltetrahydrofuran-3-yl)-4-fluoro-1H-benzo[d]imidazole-6-carboxylic Acid] displayed an EC50 of 0.136 nM.

The molecule `Cc1cc(Cc2nc3c(F)cc(C(=O)O)cc3n2[C@@H]2COCC2(C)C)c(Cl)cc1-c1cccc(OCc2ccc(C#N)cc2F)n1` [Example 139, (S)-2-(2-chloro-4-(6-((4-cyano-2-fluorobenzyl)oxy)pyridin-2-yl)-5-methylbenzyl)-1-(4,4-dimethyltetrahydrofuran-3-yl)-4-fluoro-1H-benzo[d]imidazole-6-carboxylic Acid] registered an EC50 of 0.023 nM.

The molecule `Cc1cc(Cc2nc3ccc(C(=O)O)cc3n2[C@@H]2COCC2(C)C)c(Cl)cc1-c1ccc(F)c(OCc2ccc(C#N)cc2F)n1` [Example 140, (S)-2-(2-chloro-4-(6-((4-cyano-2-fluorobenzyl)oxy)-5-fluoropyridin-2-yl)-5-methylbenzyl)-1-(4,4-dimethyltetrahydrofuran-3-yl)-1H-benzo[d]imidazole-6-carboxylic Acid] showed an EC50 of 0.158 nM.

Regarding `Cc1cc(Cc2nc3ccc(C(=O)O)cc3n2[C@@H]2COCC2(C)C)c(Cl)cc1-c1cccc(OCc2ccc(C#N)cc2F)n1` [Example 141, (S)-2-(2-chloro-4-(6-((4-cyano-2-fluorobenzyl)oxy)pyridin-2-yl)-5-methylbenzyl)-1-(4,4-dimethyltetrahydrofuran-3-yl)-1H-benzo[d]imidazole-6-carboxylic Acid], the EC50 was determined as 0.079 nM.

Molecule `Cc1cc(Cc2nc3c(F)cc(C(=O)O)cc3n2C[C@@H]2CCO2)c(Cl)cc1-c1ccc(F)c(OCc2ccc(C#N)cc2F)n1` [Example 142, (S)-2-(2-chloro-4-(6-((4-cyano-2-fluorobenzyl)oxy)-5-fluoropyridin-2-yl)-5-methylbenzyl)-4-fluoro-1-(oxetan-2-ylmethyl)-1H-benzo[d]imidazole-6-carboxylic Acid] came in with an EC50 of 0.894 nM.

In turn, `Cc1cc(Cc2nc3c(F)cc(C(=O)O)cc3n2C[C@@H]2CCO2)c(Cl)cc1-c1cccc(OCc2ccc(C#N)cc2F)n1` [Example 143, (S)-2-(2-chloro-4-(6-((4-cyano-2-fluorobenzyl)oxy)pyridin-2-yl)-5-methylbenzyl)-4-fluoro-1-(oxetan-2-ylmethyl)-1H-benzo[d]imidazole-6-carboxylic Acid] had an EC50 of 0.614 nM. The EC50 values of the last two molecules are within 1.5-fold of each other.

The molecule `Cc1cc(Cc2nc3ccc(C(=O)O)cc3n2C[C@@H]2CCO2)c(Cl)cc1-c1ccc(F)c(OCc2ccc(C#N)cc2F)n1` [Example 144, (S)-2-(2-chloro-4-(6-((4-cyano-2-fluorobenzyl)oxy)-5-fluoropyridin-2-yl)-5-methylbenzyl)-1-(oxetan-2-ylmethyl)-1H-benzo[d]imidazole-6-carboxylic Acid] returned an EC50 of 1.08 nM.

In the case of `CC1(C)COC[C@H]1n1c(Cn2cc(F)c(-c3cccc(OCc4ccc(C#N)cc4F)n3)cc2=O)nc2c(F)cc(C(=O)O)cc21` [Example 145, (S)-2-((6-((4-cyano-2-fluorobenzyl)oxy)-5′-fluoro-2′-oxo-[2,4′-bipyridin]-1′(2′H)-yl)methyl)-1-(4,4-dimethyltetrahydrofuran-3-yl)-4-fluoro-1H-benzo[d]imidazole-6-carboxylic Acid], the midpoint of the response, the EC50, lay at 0.022 nM.

With `Cc1c(-c2cccc(OCc3ccc(C#N)cc3F)n2)ccc(Cc2nc3ccc(C(=O)O)cc3n2C[C@@H]2CCO2)c1F` [Example 146, (S)-2-(4-(6-((4-cyano-2-fluorobenzyl)oxy)pyridin-2-yl)-2-fluoro-3-methylbenzyl)-1-(oxetan-2-ylmethyl)-1H-benzo[d]imidazole-6-carboxylic Acid], the EC50 was 0.379 nM.

`CC(=O)NCc1cc(F)c(COc2cccc(-c3cc(F)c(Cc4nc5ccc(C(=O)O)cc5n4C[C@@H]4CCO4)cc3F)n2)cn1` [Example 147, (S)-2-(4-(6-((6-(acetamidomethyl)-4-fluoropyridin-3-yl)methoxy)pyridin-2-yl)-2,5-difluorobenzyl)-1-(oxetan-2-ylmethyl)-1H-benzo[d]imidazole-6-carboxylic Acid] showed an EC50 of 0.233 nM.
